Data as given in patent US20220041647A1, “ESTRA-1,3,5(10)-TRIENE COMPOUNDS CONDENSED IN POSITION 16(17) WITH A PYRAZOLE RING AS INHIBITORS OF 17-HSD1” (FORENDO PHARMA LTD, priority 2018, published 2022).

Experiments:
[1] = test system: HSD1 enzyme that is expressed in rabbit placenta tissue; test: Inhibition of E1 to E2 conversion in rabbit placenta tissue homogenate; format: biochemical; conditions: compound 100 nM, 30 nM estrone, 1 mM β-NADPH, 30 min
Outline: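 Rabbit placenta homogenate (20 mM KH2PO4, 1 mM EDTA, pH 7.4) incubated 30 min with 1 mM β-NADPH, 30 nM estrone plus 5 nM [3H]-estrone tracer, and inhibitor at 1 μM or 0.1 μM (1% DMSO). Stopped with TCA; estrone and estradiol resolved by HPLC with scintillation counting; % inhibition = 100 − % conversion relative to uninhibited control.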

[2] = molecular target: T1, recombinant human 17β-HSD2 (Homo sapiens, UniProt P37059); test: Inhibition of recombinant human 17β-HSD2 (estradiol to estrone conversion, HPLC/radioactivity); format: biochemical; conditions: compound 1 μM; 50 nM estradiol, 1 mM NADH, 30 min RT
T1 construct: made in house; host or cells: Sd9 (Sf9) insect cells, baculovirus (Bac to Bac Expression System)
T1 sequence (P37059 1-387): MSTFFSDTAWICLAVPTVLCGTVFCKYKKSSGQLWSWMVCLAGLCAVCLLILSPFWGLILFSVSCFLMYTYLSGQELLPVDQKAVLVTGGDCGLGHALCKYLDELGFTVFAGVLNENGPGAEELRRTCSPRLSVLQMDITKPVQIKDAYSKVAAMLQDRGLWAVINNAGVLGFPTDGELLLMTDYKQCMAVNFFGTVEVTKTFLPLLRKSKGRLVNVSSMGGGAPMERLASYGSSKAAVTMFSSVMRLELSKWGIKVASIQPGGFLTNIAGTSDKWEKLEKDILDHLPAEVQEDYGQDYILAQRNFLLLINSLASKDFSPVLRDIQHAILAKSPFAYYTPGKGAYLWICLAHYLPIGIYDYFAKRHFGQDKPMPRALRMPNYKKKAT
Outline: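 Membrane extract of Sf9 cells expressing recombinant human 17β-HSD2 (4 μg/ml), in 20 mM KH2PO4 pH 8.5 with 50 nM ^3H-spiked estradiol and 1 mM NADH, 30 min at RT, 1% DMSO. Compound at 1 μM or 0.1 μM; estrone formation by HPLC radioactivity, % inhibition relative to uninhibited conversion.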

SMILES | Rabbit placenta inhibition % @100 nM [1] | inhibition at 1 µM [2]
C[C@]12CCC3c4cccc(F)c4CCC3C1[C@H](CCC(=O)Nc1ncc(F)cc1F)c1c[nH]nc12 (stereo partly drawn) [Compound 9, N-(3,5-difluoropyridin-2-yl)-3-((8aS,12S)-3-fluoro-8a-methyl-1,2,6b,7,8,8a,10,12,12a,12b-decahydronaphtho[2′,1′:4,5]indeno[1,2-c]pyrazol-12-yl)propanamide] | 26% | 3%
C[C@]12CCC3c4cccc(F)c4CCC3C1[C@H](CCC(=O)Nc1cc(F)ccn1)c1c[nH]nc12 (stereo partly drawn) [Compound 15, 3-((8aS,12S)-3-fluoro-8a-methyl-1,2,6b,7,8,8a,10,12,12a,12b-decahydronaphtho[2′,1′:4,5]indeno[1,2-c]pyrazol-12-yl)-N-(4-fluoropyridin-2-yl)propanamide] | 64% | 6%
C[C@]12CCC3c4cccc(F)c4CCC3C1[C@H](CCC(=O)Nc1ccccn1)c1c[nH]nc12 (stereo partly drawn) [Compound 18, 3-((8aS,12S)-3-fluoro-8a-methyl-1,2,6b,7,8,8a,10,12,12a,12b-decahydronaphtho[2′,1′:4,5]indeno[1,2-c]pyrazol-12-yl)-N-(pyridin-2-yl)propanamide] | 44% | 1%
COc1ccc(NC(=O)CC[C@@H]2c3c[nH]nc3[C@@]3(C)CCC4c5cccc(F)c5CCC4C23)nc1 (stereo partly drawn) [Compound 21, 3-((8aS,12S)-3-fluoro-8a-methyl-1,2,6b,7,8,8a,10,12,12a,12b-decahydronaphtho[2′,1′:4,5]indeno[1,2-c]pyrazol-12-yl)-N-(5-methoxypyridin-2-yl)propanamide] | 68% | 4%
C[C@]12CCC3c4cccc(F)c4CCC3C1[C@H](CCC(=O)N1CCNC(=O)C1)c1c[nH]nc12 (stereo partly drawn) [Compound 24, 4-(3-((8aS,12S)-3-fluoro-8a-methyl-1,2,6b,7,8,8a,10,12,12a,12b-decahydronaphtho[2′,1′:4,5]indeno[1,2-c]pyrazol-12-yl)propanoyl)piperazin-2-one] | 27% | 1%
C[C@]12CCC3c4cccc(F)c4CCC3C1[C@H](CCC(=O)Nc1cc3c([nH]c1=O)CCCC3)c1c[nH]nc12 (stereo partly drawn) [Compound 30, 3-((8aS,12S)-3-fluoro-8a-methyl-1,2,6b,7,8,8a,10,12,12a,12b-decahydronaphtho[2′,1′:4,5]indeno[1,2-c]pyrazol-12-yl)-N-(2-oxo-1,2,5,6,7,8-hexahydroquinolin-3-yl)propanamide] | 53% | 3%
CN(C)C(=O)c1ccc(NC(=O)CC[C@@H]2c3c[nH]nc3[C@@]3(C)CCC4c5cccc(F)c5CCC4C23)nc1 (stereo partly drawn) [Compound 33, 6-(3-((8aS,12S)-3-fluoro-8a-methyl-1,2,6b,7,8,8a,10,12,12a,12b-decahydronaphtho[2′,1′:4,5]indeno[1,2-c]pyrazol-12-yl)propanamido)-N,N-dimethylnicotinamide] | 68% | 8%
CC(C)c1ccc(NC(=O)CC[C@@H]2c3c[nH]nc3[C@@]3(C)CCC4c5cccc(F)c5CCC4C23)nc1 (stereo partly drawn) [Compound 36, 3-((8aS,12S)-3-fluoro-8a-methyl-1,2,6b,7,8,8a,10,12,12a,12b-decahydronaphtho[2′,1′:4,5]indeno[1,2-c]pyrazol-12-yl)-N-(5-isopropylpyridin-2-yl)propanamide] | 55% | 8%
C[C@]12CCC3c4cccc(F)c4CCC3C1[C@H](CCC(=O)Nc1ccc(N3CCOCC3)cn1)c1c[nH]nc12 (stereo partly drawn) [Compound 39, 3-((8aS,12S)-3-fluoro-8a-methyl-1,2,6b,7,8,8a,10,12,12a,12b-decahydronaphtho[2′,1′:4,5]indeno[1,2-c]pyrazol-12-yl)-N-(5-morpholinopyridin-2-yl)propanamide] | 69% | 9%
CN1CCN(c2ccc(NC(=O)CC[C@@H]3c4c[nH]nc4[C@@]4(C)CCC5c6cccc(F)c6CCC5C34)nc2)CC1 (stereo partly drawn) [Compound 42, 3-((8aS,12S)-3-fluoro-8a-methyl-1,2,6b,7,8,8a,10,12,12a,12b-decahydronaphtho[2′,1′:4,5]indeno[1,2-c]pyrazol-12-yl)-N-(5-(4-methylpiperazin-1-yl)pyridin-2-yl)propanamide] | 82% | 34%
COc1ccnc(NC(=O)CC[C@@H]2c3c[nH]nc3[C@@]3(C)CCC4c5cccc(F)c5CCC4C23)c1 (stereo partly drawn) [Compound 48, 3-((8aS,12S)-3-fluoro-8a-methyl-1,2,6b,7,8,8a,10,12,12a,12b-decahydronaphtho[2′,1′:4,5]indeno[1,2-c]pyrazol-12-yl)-N-(4-methoxypyridin-2-yl)propanamide] | 57% | 5%
C[C@]12CCC3c4cccc(F)c4CCC3C1[C@H](CCC(=O)Nc1cnccn1)c1c[nH]nc12 (stereo partly drawn) [Compound 51, 3-((8aS,12S)-3-fluoro-8a-methyl-1,2,6b,7,8,8a,10,12,12a,12b-decahydronaphtho[2′,1′:4,5]indeno[1,2-c]pyrazol-12-yl)-N-(pyrazin-2-yl)propanamide] | 59% | 1%
Cn1ccc(NC(=O)CC[C@@H]2c3c[nH]nc3[C@@]3(C)CCC4c5cccc(F)c5CCC4C23)n1 (stereo partly drawn) [Compound 54, 3-((8aS,12S)-3-fluoro-8a-methyl-1,2,6b,7,8,8a,10,12,12a,12b-decahydronaphtho[2′,1′:4,5]indeno[1,2-c]pyrazol-12-yl)-N-(1-methyl-1H-pyrazol-3-yl)propanamide] | 52% | 8%
C[C@]12CCC3c4cccc(F)c4CCC3C1[C@H](CCC(=O)N1Cc3ccccc3C1)c1c[nH]nc12 (stereo partly drawn) [Compound 57, 3-((8aS,12S)-3-fluoro-8a-methyl-1,2,6b,7,8,8a,10,12,12a,12b-decahydronaphtho[2′,1′:4,5]indeno[1,2-c]pyrazol-12-yl)-1-(isoindolin-2-yl)propan-1-one] | 48% | 16%
COc1ccc(NC(=O)CC[C@@H]2c3c[nH]nc3[C@@]3(C)CCC4c5ccc(F)cc5CCC4C23)nc1 (stereo partly drawn) [Compound 84, 3-((8aS,12S)-4-fluoro-8a-methyl-1,2,6b,7,8,8a,10,12,12a,12b-decahydronaphtho[2′,1′:4,5]indeno[1,2-c]pyrazol-12-yl)-N-(5-methoxypyridin-2-yl)propanamide] | 27% | 2%
CC(C)c1ccc(NC(=O)CC[C@@H]2c3c[nH]nc3[C@@]3(C)CCC4c5ccc(F)cc5CCC4C23)nc1 (stereo partly drawn) [Compound 87, 3-((8aS,12S)-4-fluoro-8a-methyl-1,2,6b,7,8,8a,10,12,12a,12b-decahydronaphtho[2′,1′:4,5]indeno[1,2-c]pyrazol-12-yl)-N-(5-isopropylpyridin-2-yl)propanamide] | 16% | 6%
COc1ccnc(NC(=O)CC[C@@H]2c3c[nH]nc3[C@@]3(C)CCC4c5ccc(F)cc5CCC4C23)c1 (stereo partly drawn) [Compound 90, 3-((8aS,12S)-4-fluoro-8a-methyl-1,2,6b,7,8,8a,10,12,12a,12b-decahydronaphtho[2′,1′:4,5]indeno[1,2-c]pyrazol-12-yl)-N-(4-methoxypyridin-2-yl)propanamide] | 30% | 3%
Cc1ccnc(NC(=O)CC[C@@H]2c3c[nH]nc3[C@@]3(C)CCC4c5ccc(F)cc5CCC4C23)c1 (stereo partly drawn) [Compound 93, 3-((8aS,12S)-4-fluoro-8a-methyl-1,2,6b,7,8,8a,10,12,12a,12b-decahydronaphtho[2′,1′:4,5]indeno[1,2-c]pyrazol-12-yl)-N-(4-methylpyridin-2-yl)-propanamide] | 31% | 4%
C[C@]12CCC3c4ccc(F)cc4CCC3C1[C@H](CCC(=O)Nc1ccc(N3CCOCC3)cn1)c1c[nH]nc12 (stereo partly drawn) [Compound 96, 3-((8aS,12S)-4-fluoro-8a-methyl-1,2,6b,7,8,8a,10,12,12a,12b-decahydronaphtho[2′,1′:4,5]indeno[1,2-c]pyrazol-12-yl)-N-(5-morpholinopyridin-2-yl)propanamide] | 42% | 5%
C[C@]12CCC3c4ccc(F)cc4CCC3C1[C@H](CCC(=O)Nc1ccc(F)cn1)c1c[nH]nc12 (stereo partly drawn) [Compound 99, 3-((8aS,12S)-4-fluoro-8a-methyl-1,2,6b,7,8,8a,10,12,12a,12b-decahydronaphtho[2′,1′:4,5]indeno[1,2-c]pyrazol-12-yl)-N-(5-fluoropyridin-2-yl)propanamide] | 10% | 4%
